The nature of this data set: gradient 5% acetonitrile 3 min, to 50% in 2 min, to 85% in 15 min, held 3 min, 100 µL/min. Particulars: column: Zorbax Extend-C18 2.1 x 50 mm; eluents: water / acetonitrile, 0.1% formic acid. In short, it runs like this:
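Over 3 months, pure standards in mixtures of ~100 molecules were run by HPLC coupled to a quadrupole time-of-flight mass spectrometer in positive and negative ionization mode. The column was a Zorbax Extend-C18 (2.1 × 50 mm, 1.8 μm) at 100 μL/min, eluted with water and acetonitrile each holding 0.1% formic acid, with 40 μL dead and 900 μL dwell volumes. Retention time was determined from adduct peaks chosen by software and checked manually.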
`O=C(Nc1ccccc1)C1CCCN(S(=O)(=O)Cc2ccc(Cl)cc2)C1` (stereo not given): the RP-LC retention time came out at 1010 s.

`O=C(CCC1CCCC1)Nc1ccc(N2CCN(C3CCCC3)C2=O)nc1` showed an RP-LC retention time of 884 s.

Regarding `Cc1cc(NC(=O)C2CCCN(c3ccc(-n4cccn4)nn3)C2)no1` (stereo not given), the RP-LC retention time was 654 s.

`COc1ccc(N2CCN(c3cc(C(=O)O)c4cc(NS(C)(=O)=O)ccc4n3)CC2)cc1`: the RP-LC retention time stood at 609 s.

In the case of `O=C(NCCc1ccccc1)N1CCCn2nc(-c3ccncc3)cc2C1`, the RP-LC retention time was 583 s.

As for `N[C@@H]1CCCCN(c2c(F)cc3c(=O)c(C(=O)O)cn(C4CC4)c3c2Cl)C1`, the RP-LC retention time amounted to 707 s.

For the compound `CCOC(=O)c1ccccc1NC(=O)CSc1nnc(NC(=O)C(C)(C)C)s1`, the RP-LC retention time was 929 s.

`Cc1cn(C)c(CC(=O)Nc2ccc(Cl)cc2)c1C(=O)O`: the RP-LC retention time was 804 s.

Compound `CC1CCN(C(=O)C2CCCN(c3ncnc4c3nc3n4CCCCC3)C2)CC1` (stereo not given) had an RP-LC retention time of 793 s.

Consider `O=C(CCc1nc(-c2ccc(N3CCCC3)cc2)no1)NCc1ccc2c(c1)OCO2`, for which the RP-LC retention time worked out at 979 s.

For the compound `CCOc1ccc(-c2nc(-c3ccc4c(c3)N(CC)C(=O)CO4)no2)cc1OCC`, the RP-LC retention time was 1200 s.

The compound `O=C(Nc1cnc(-c2cccc(Cl)c2)nc1)c1cccs1` came in with an RP-LC retention time of 1070 s.

On to `Cc1ccc(S(=O)(=O)N2CCC3(CC2)NCCN=C3NCc2cccc(F)c2)cc1C`, for which the RP-LC retention time worked out at 745 s.

In the case of `O=C(NC1CC1)c1ccc(N2CCC(NCc3ccc(F)c(F)c3)C2)nc1` (stereo not given), the RP-LC retention time came out at 567 s.

In turn, `O=C(Nc1cccc(C(F)(F)F)c1)Nc1cnn(-c2ncc(N3CCCC3)cn2)c1` registered an RP-LC retention time of 921 s.

`Cc1nnc2ccc(N3CCN(C(=O)CSc4nc5ccccc5s4)CC3)nn12` showed an RP-LC retention time of 652 s.

The compound `O=C1CC(c2noc(-c3ccccc3)n2)CN1c1ccc(F)c(Cl)c1` (stereo not given) showed an RP-LC retention time of 1070 s.

`COc1ccc(Nc2c(-c3nc(C)no3)cnc3nc(C)ccc23)c(OC)c1`: the RP-LC retention time amounted to 692 s.

The compound `CCOC(=O)N1CCC(Nc2c(N3CCN(c4ccccn4)CC3)c(=O)c2=O)CC1` yielded an RP-LC retention time of 572 s.

Compound `COc1ccc(CNC(=O)NCCOc2cc(C)cc(C)c2)cc1OC` registered an RP-LC retention time of 782 s.

With `CCC(=O)N1CCCn2nc(-c3ccc(F)cc3)cc2C1`, the RP-LC retention time was 741 s.

The compound `Cc1ccc(NC(=O)C2CCN(S(=O)(=O)c3cc(C(=O)N4CCCC4)cs3)CC2)cc1` showed an RP-LC retention time of 830 s.

`CC(C)C(=O)N1CCN(c2ccc(=O)n(-c3ccc(Cl)cc3)n2)CC1` yielded an RP-LC retention time of 767 s.

The compound `CCCCNC(=O)c1ccc2c(c1)NC(=O)C(C(C)C)N2` (stereo not given) returned an RP-LC retention time of 684 s.

In turn, `NS(=O)(=O)c1ccc(CCNC(=O)Cc2cc(-c3cccs3)on2)cc1` registered an RP-LC retention time of 669 s.

Compound `Cc1ccc(S(=O)(=O)N2CCCCC2)cc1-c1nnc(-c2ccccc2Cl)o1` came in with an RP-LC retention time of 1160 s.

Compound `CCn1c(=O)n(CC)c2cc(S(=O)(=O)c3ccccc3)c(NC(=O)C3CC3)cc21` yielded an RP-LC retention time of 816 s.

In the case of `CC(C)(C)c1cc(C(=O)Nc2ccc(C#N)cc2)nc2ccnn12`, the RP-LC retention time stood at 1200 s.

The compound `CN(CCNC(=O)C1CCc2nc(N3CCOCC3)ncc2C1)C1CCCCC1` (stereo not given) displayed an RP-LC retention time of 586 s.

Compound `CCN(CC)S(=O)(=O)c1cccc(-c2cn3ccc(C)cc3n2)c1` displayed an RP-LC retention time of 656 s.

In turn, `Cc1ccc(Cl)cc1NC(=O)N1CCC(CC(=O)NCc2ccc(F)cc2)CC1` displayed an RP-LC retention time of 849 s.

`CC(=O)Nc1ccc(-c2noc(C3CCCN(C(=O)Cc4ccc(Br)cc4)C3)n2)cc1` (stereo not given) came in with an RP-LC retention time of 872 s.

For the compound `COc1ccc(CNC(=O)Cn2c(C(F)(F)F)nc3cc4c(cc32)OCCO4)cc1`, the RP-LC retention time amounted to 813 s.

As for `Cc1noc([C@@H]2CN(CCCc3ccccc3)C[C@H]2CO)n1`, the RP-LC retention time came out at 612 s.

The compound `Cc1ccc2c(=O)c(C(=O)N3CCCCC3)cn(CC(=O)NCc3ccccc3)c2n1` registered an RP-LC retention time of 753 s.

The compound `COc1cccc(CNC(=O)Cn2cnc3onc(C)c3c2=O)c1` gave an RP-LC retention time of 708 s.

Take `O=C(CN1C(=O)NC2(CCCCC2)C1=O)NCCc1ccc(Cl)cc1`: the RP-LC retention time came out at 790 s.

On to `Cc1ccc(C)c(NC(=O)Cn2cccc2-c2nc(-c3ccc4c(c3)OCO4)no2)c1`, for which the RP-LC retention time amounted to 1050 s.

On to `CC(NC(=O)C1CCN(S(C)(=O)=O)c2cc(Cl)ccc2O1)c1ccccc1` (stereo not given), for which the RP-LC retention time worked out at 935 s.

`CCOc1ccc(-n2cc(C(=O)O)nn2)cc1` yielded an RP-LC retention time of 686 s.

Consider `COc1ccc(NC(=O)N2[C@H]3CC[C@@H]2c2cnc(-c4ccccc4)nc2C3)c(OC)c1`, for which the RP-LC retention time is 894 s.

For the compound `Cc1nn(CC(=O)NCCc2c[nH]c3ccc(Cl)cc23)c(=O)c2noc(C)c12`, the RP-LC retention time amounted to 766 s.

The compound `O=C(CCCc1ccccc1)Nc1ccc2c(c1)CCC(=O)N2` gave an RP-LC retention time of 724 s.

`CSc1ccc(-c2nc3ccccn3c2Nc2ccc3c(c2)OCCO3)cc1` returned an RP-LC retention time of 712 s.

In the case of `CCC(C)C(=O)N1CCc2[nH]nc(C(=O)NCCCc3ccccc3)c2C1` (stereo not given), the RP-LC retention time came to 781 s.

In turn, `CCOc1ccc2sc(NS(=O)(=O)c3ccc(N)cc3)nc2c1` yielded an RP-LC retention time of 797 s.

`CCN1CCN(S(=O)(=O)c2ccc(-c3cc(C(F)(F)F)on3)o2)CC1`: the RP-LC retention time was 691 s.

For `CC1(C)CCC(NC(=O)[C@@H](N)CCC(=O)O)CC1`, the RP-LC retention time is 654 s.

In turn, `Cc1cnc(C)n1C1CCN(S(=O)(=O)c2ccccc2)CC1` registered an RP-LC retention time of 634 s.

`CCN1CCN(c2ncc(N3CCC(C(=O)NCC(C)C)CC3)cn2)CC1` had an RP-LC retention time of 582 s.

For `COc1cccc2cc(C(=O)N3CCN(CCn4cccn4)CC3)oc12`, the RP-LC retention time came to 571 s.

On to `COc1ccc(-n2c(CSc3ncccn3)nnc2SCC(=O)NO)cc1`, for which the RP-LC retention time is 592 s.

`Cn1ncc2c3ccccc3n(CCCC(=O)N3CCN(c4ccccn4)CC3)c2c1=O` displayed an RP-LC retention time of 607 s.

With `CC(C)NC(=O)Cn1c2ccccc2n2c(=O)cc(-c3ccc(F)cc3)nc12`, the RP-LC retention time was 702 s.

Compound `Cc1cc2nn(CC(=O)NCc3ccc(F)cc3)c(=O)n2c(Nc2ccccc2C)n1` gave an RP-LC retention time of 977 s.

The compound `CCN(CC)S(=O)(=O)N1CCCC(C(=O)NCCc2ccc(Cl)cc2)C1` (stereo not given) registered an RP-LC retention time of 945 s.

Compound `CC1CCN(c2cc(-n3cnc(C(=O)N(C)Cc4ccccc4)c3)ncn2)CC1` had an RP-LC retention time of 1050 s.

With `O=C(CF)N(O)c1ccc(/C=C/c2ccccc2)cc1`, the RP-LC retention time was 959 s.

In the case of `Cc1cccc(NC(=O)NC2CCN(c3ccccc3)C2=O)c1` (stereo not given), the RP-LC retention time came out at 814 s.

`CON=C(C(=O)NC1C(=O)N2C(C(=O)O)=C(CSc3nc(C)c(CC(=O)O)s3)CSC12)c1csc(N)n1` (stereo not given) had an RP-LC retention time of 629 s.

The record behind these values is the METLIN SMRT retention time set (Domingo-Almenara et al. 2019).
